Several values for one entry are separate records, joined by “and”; a condition that tells them apart may be missing. Equal entries are not always repeated. ± gives the expanded uncertainty stated by the source.
Assay: mn = molality of the nth substance listed, in mol/kg
Conditions: 101 kPa, Liquid; for mass density: Vibrating tube method; for viscosity: Capillary tube (Ostwald / Ubbelohde) method; for speed of sound: Sing-around technique in a fixed-path interferometer

O=C([O-])CC(O)(CC(=O)[O-])C(=O)[O-].[K+].[K+].[K+] [potassium citrate] + O
mass density (303.15 K, m1 = 0.066): 1008.87 ± 0.21 kg/m3
mass density (303.15 K, m1 = 0.0754): 1010.72 ± 0.21 kg/m3
mass density (303.15 K, m1 = 0.0849): 1012.58 ± 0.21 kg/m3
mass density (303.15 K, m1 = 0.0943): 1014.42 ± 0.2 kg/m3
mass density (303.15 K, m1 = 0.2984): 1052.39 ± 0.2 kg/m3
mass density (303.15 K, m1 = 0.3971): 1069.63 ± 0.19 kg/m3
mass density (303.15 K, m1 = 0.4955): 1086.25 ± 0.19 kg/m3
mass density (303.15 K, m1 = 0.5936): 1102.31 ± 0.19 kg/m3
mass density (303.15 K, m1 = 0.7877): 1132.65 ± 0.19 kg/m3
mass density (303.15 K, m1 = 0.9823): 1161.02 ± 0.19 kg/m3
mass density (303.15 K, m1 = 1.175): 1187.66 ± 0.19 kg/m3
mass density (303.15 K, m1 = 1.366): 1212.46 ± 0.2 kg/m3
mass density (303.15 K, m1 = 1.555): 1235.64 ± 0.21 kg/m3
mass density (303.15 K, m1 = 1.837): 1267.94 ± 0.22 kg/m3
viscosity (308.15 K, m1 = 0.0472): 0.739 ± 0.009 mPa·s
viscosity (308.15 K, m1 = 0.0566): 0.741 ± 0.009 mPa·s
viscosity (308.15 K, m1 = 0.066): 0.744 ± 0.009 mPa·s
viscosity (308.15 K, m1 = 0.0754): 0.749 ± 0.009 mPa·s
viscosity (308.15 K, m1 = 0.0849): 0.754 ± 0.009 mPa·s
viscosity (308.15 K, m1 = 0.0943): 0.76 ± 0.009 mPa·s
viscosity (308.15 K, m1 = 0.2984): 0.861 ± 0.01 mPa·s
viscosity (308.15 K, m1 = 0.3971): 0.916 ± 0.011 mPa·s
viscosity (308.15 K, m1 = 0.4955): 0.975 ± 0.011 mPa·s
viscosity (308.15 K, m1 = 0.5936): 1.036 ± 0.012 mPa·s
viscosity (308.15 K, m1 = 0.7877): 1.168 ± 0.013 mPa·s
viscosity (308.15 K, m1 = 0.9823): 1.316 ± 0.015 mPa·s
viscosity (308.15 K, m1 = 1.175): 1.486 ± 0.017 mPa·s
viscosity (308.15 K, m1 = 1.366): 1.671 ± 0.019 mPa·s
viscosity (308.15 K, m1 = 1.555): 1.875 ± 0.022 mPa·s
viscosity (308.15 K, m1 = 1.837): 2.231 ± 0.026 mPa·s
speed of sound (308.15 K, m1 = 0.0472): 1529 ± 2.1 m/s
speed of sound (308.15 K, m1 = 0.0566): 1530.8 ± 2.1 m/s
speed of sound (308.15 K, m1 = 0.066): 1532.5 ± 2.1 m/s
speed of sound (308.15 K, m1 = 0.0754): 1534.2 ± 2.1 m/s
speed of sound (308.15 K, m1 = 0.0849): 1535.9 ± 2.1 m/s
speed of sound (308.15 K, m1 = 0.0943): 1537.6 ± 2.1 m/s
speed of sound (308.15 K, m1 = 0.2984): 1572.8 ± 2.1 m/s
speed of sound (308.15 K, m1 = 0.3971): 1589 ± 2.1 m/s
speed of sound (308.15 K, m1 = 0.4955): 1605.1 ± 2.1 m/s
speed of sound (308.15 K, m1 = 0.5936): 1620.8 ± 2.1 m/s
speed of sound (308.15 K, m1 = 0.7877): 1651.3 ± 2.1 m/s
speed of sound (308.15 K, m1 = 0.9823): 1681 ± 2.1 m/s
speed of sound (308.15 K, m1 = 1.175): 1704 ± 2.2 m/s
speed of sound (308.15 K, m1 = 1.366): 1731.7 ± 2.2 m/s
speed of sound (308.15 K, m1 = 1.555): 1757.9 ± 2.2 m/s
speed of sound (308.15 K, m1 = 1.837): 1794.7 ± 2.2 m/s
mass density (308.15 K, m1 = 0.0472): 1003.5 ± 0.21 kg/m3
mass density (308.15 K, m1 = 0.0566): 1005.36 ± 0.21 kg/m3
mass density (308.15 K, m1 = 0.066): 1007.2 ± 0.21 kg/m3
mass density (308.15 K, m1 = 0.0754): 1009.04 ± 0.21 kg/m3
mass density (308.15 K, m1 = 0.0849): 1010.89 ± 0.21 kg/m3
mass density (308.15 K, m1 = 0.0943): 1012.72 ± 0.2 kg/m3
mass density (308.15 K, m1 = 0.2984): 1050.43 ± 0.2 kg/m3
mass density (308.15 K, m1 = 0.3971): 1067.62 ± 0.19 kg/m3
mass density (308.15 K, m1 = 0.4955): 1084.2 ± 0.19 kg/m3
mass density (308.15 K, m1 = 0.5936): 1100.17 ± 0.19 kg/m3
mass density (308.15 K, m1 = 0.7877): 1130.41 ± 0.19 kg/m3
mass density (308.15 K, m1 = 0.9823): 1158.81 ± 0.19 kg/m3
mass density (308.15 K, m1 = 1.175): 1185.33 ± 0.19 kg/m3
mass density (308.15 K, m1 = 1.366): 1210.05 ± 0.2 kg/m3
mass density (308.15 K, m1 = 1.555): 1233.31 ± 0.2 kg/m3
mass density (308.15 K, m1 = 1.837): 1265.24 ± 0.22 kg/m3
viscosity (313.15 K, m1 = 0.0472): 0.665 ± 0.008 mPa·s
viscosity (313.15 K, m1 = 0.0566): 0.668 ± 0.008 mPa·s
viscosity (313.15 K, m1 = 0.066): 0.672 ± 0.008 mPa·s
viscosity (313.15 K, m1 = 0.0754): 0.675 ± 0.008 mPa·s
viscosity (313.15 K, m1 = 0.0849): 0.68 ± 0.008 mPa·s
viscosity (313.15 K, m1 = 0.0943): 0.684 ± 0.008 mPa·s
viscosity (313.15 K, m1 = 0.2984): 0.783 ± 0.009 mPa·s
viscosity (313.15 K, m1 = 0.3971): 0.832 ± 0.01 mPa·s
viscosity (313.15 K, m1 = 0.4955): 0.887 ± 0.01 mPa·s
viscosity (313.15 K, m1 = 0.5936): 0.94 ± 0.011 mPa·s
viscosity (313.15 K, m1 = 0.7877): 1.063 ± 0.012 mPa·s
viscosity (313.15 K, m1 = 0.9823): 1.196 ± 0.014 mPa·s
viscosity (313.15 K, m1 = 1.175): 1.351 ± 0.016 mPa·s
viscosity (313.15 K, m1 = 1.366): 1.516 ± 0.017 mPa·s
viscosity (313.15 K, m1 = 1.555): 1.697 ± 0.02 mPa·s
viscosity (313.15 K, m1 = 1.837): 2.013 ± 0.023 mPa·s
speed of sound (313.15 K, m1 = 0.0472): 1538.1 ± 2.1 m/s
speed of sound (313.15 K, m1 = 0.0566): 1539.8 ± 2.1 m/s
speed of sound (313.15 K, m1 = 0.066): 1541.4 ± 2.1 m/s
speed of sound (313.15 K, m1 = 0.0754): 1543 ± 2.1 m/s
speed of sound (313.15 K, m1 = 0.0849): 1544.7 ± 2.1 m/s
speed of sound (313.15 K, m1 = 0.0943): 1546.4 ± 2.1 m/s
speed of sound (313.15 K, m1 = 0.2984): 1580.5 ± 2.1 m/s
speed of sound (313.15 K, m1 = 0.3971): 1596.5 ± 2.1 m/s
speed of sound (313.15 K, m1 = 0.4955): 1612 ± 2.1 m/s
speed of sound (313.15 K, m1 = 0.5936): 1627.4 ± 2.1 m/s
speed of sound (313.15 K, m1 = 0.7877): 1657.5 ± 2.1 m/s
speed of sound (313.15 K, m1 = 0.9823): 1686.1 ± 2.1 m/s
speed of sound (313.15 K, m1 = 1.175): 1709.4 ± 2.2 m/s and 1714 ± 2.2 m/s
speed of sound (313.15 K, m1 = 1.366): 1736.3 ± 2.2 m/s and 1740.3 ± 2.2 m/s
speed of sound (313.15 K, m1 = 1.555): 1762.1 ± 2.2 m/s and 1765.2 ± 2.2 m/s
speed of sound (313.15 K, m1 = 1.837): 1797.6 ± 2.2 m/s and 1800.3 ± 2.2 m/s
mass density (313.15 K, m1 = 0.0472): 1001.66 ± 0.21 kg/m3
mass density (313.15 K, m1 = 0.0566): 1003.51 ± 0.21 kg/m3
mass density (313.15 K, m1 = 0.066): 1005.35 ± 0.21 kg/m3
mass density (313.15 K, m1 = 0.0754): 1007.18 ± 0.21 kg/m3
mass density (313.15 K, m1 = 0.0849): 1009.03 ± 0.21 kg/m3
mass density (313.15 K, m1 = 0.0943): 1010.86 ± 0.21 kg/m3
mass density (313.15 K, m1 = 0.2984): 1048.42 ± 0.2 kg/m3
mass density (313.15 K, m1 = 0.3971): 1065.62 ± 0.19 kg/m3
mass density (313.15 K, m1 = 0.4955): 1082.12 ± 0.19 kg/m3
mass density (313.15 K, m1 = 0.5936): 1098.03 ± 0.19 kg/m3
mass density (313.15 K, m1 = 0.7877): 1128.2 ± 0.19 kg/m3
mass density (313.15 K, m1 = 0.9823): 1156.41 ± 0.19 kg/m3
mass density (313.15 K, m1 = 1.175): 1182.97 ± 0.19 kg/m3
mass density (313.15 K, m1 = 1.366): 1207.69 ± 0.2 kg/m3
mass density (313.15 K, m1 = 1.555): 1230.6 ± 0.2 kg/m3
mass density (313.15 K, m1 = 1.837): 1262.83 ± 0.22 kg/m3

Source: the NIST ThermoML archive (doi:10.1016/j.jct.2010.11.003)
